Assay results reported in ChEMBL document CHEMBL3352240, “Upregulation of both heme oxygenase-1 and ATPase inhibitory factor 1 renders tumoricidal activity by synthetic flavonoids via depleting cellular ATP” (2014).
Calls of active or inactive are those of the source. The calls are words filed in the database; no cut-off is given here.

Columns and labels:
MRC5 [1] = assay: Induction of ATPIF-1 expression in human MRC5 cells […] after 24 hrs by immunoblotting analysis relative to control; format: functional
MRC5 [2] = assay: Induction of HO-1 expression in human MRC5 cells […] after 24 hrs by immunoblotting analysis relative to control; format: functional
HCT-116 [3] = assay: Cytotoxicity against human HCT116 cells at 10 to 50 uM by MTT assay; format: functional, cell-based; settings: TDE = time-dependent effect
HCT-116 [4] = assay: Cytotoxicity against human HCT116 cells at 20 uM after 24 to 48 hrs by MTT assay; format: functional, cell-based
HT-29 [5] = assay: Cytotoxicity against human HT-29 cells at 20 uM after 24 to 48 hrs by MTT assay; format: functional, cell-based
MRC5 [6] = assay: Induction of apoptosis in human MRC5 cells assessed as downregulation of Bcl-XL protein expression in presence of H2O2 by Western blotting method; format: functional, cell-based
HCT-116 [7] = assay: Induction of apoptosis in human HCT116 cells assessed as PARP cleavage at 20 uM after 48 hrs by Western blotting method; format: functional, cell-based
HCT-116 [8] = assay: Induction of mitochondrial morphology changes in human HCT116 cells assessed as swelling and damaged mitochondria by microscopic analysis; format: functional, cell-based
HT-29 [9] = assay: Induction of mitochondrial morphology changes in human HT-29 cells assessed as lipid bodies near mitochondria by microscopic analysis; format: functional, cell-based
HCT-116 [10] = assay: Induction of cellular energetics impairment in human HCT116 cells assessed as cellular ATP level by Cell Titre-Glo assay relative to vehicle-treated control; format: functional
HT-29 [11] = assay: Induction of ATPIF-1 expression in human HT-29 cells at 20 uM after 48 hrs relative to vehicle-treated control; format: functional, cell-based
MRC5 [12] = assay: Induction of apoptosis in human MRC5 cells assessed as downregulation of Bcl2 protein expression in presence of H2O2 by Western blotting method; format: functional, cell-based
HT-29 [13] = assay: Cytotoxicity against human HT-29 cells at 30 uM after 24 hrs by MTT assay in presence of HO-1 inducer hemin; format: functional, cell-based
HCT-116 [14] = assay: Induction of ATPIF-1 expression in human HCT116 cells at 20 uM after 48 hrs relative to vehicle-treated control; format: functional, cell-based
HT-29 [15] = assay: Induction of mitochondrial morphology changes in human HT-29 cells assessed as mitochondria with electron dense phenotype and well preserved cristae by microscopic analysis; format: functional, cell-based
HCT-116 [16] = assay: Cytotoxicity against human HCT116 cells after 24 to 48 hrs by MTT assay; format: functional, cell-based
HT-29 [17] = assay: Induction of cellular energetics impairment in human HT-29 cells assessed as cellular ATP level by Cell Titre-Glo assay relative to vehicle-treated control; format: functional
HCT-116 [18] = assay: Cytotoxicity against human HCT116 cells at 30 uM after 24 hrs by MTT assay in presence of HO-1 inhibitor siRNA; format: functional, cell-based
HCT-116 [19] = assay: Cytotoxicity against human HCT116 cells at 30 uM after 24 hrs by MTT assay in presence of HO-1 inhibitor ZnPP; format: functional, cell-based
MRC5 [20] = assay: Cytotoxicity against human MRC5 cells by MTT assay in presence of H2O2; format: functional, cell-based
MRC5 [21] = assay: Cytotoxicity against human MRC5 cells at 30 uM by MTT assay in presence of H2O2; format: functional, cell-based
HCT-116 [22] = assay: Cytotoxicity against human HCT116 cells at 10 to 50 uM after 24 to 48 hrs by MTT assay; format: functional, cell-based
HT-29 [23] = assay: Cytotoxicity against human HT-29 cells at 10 to 50 uM after 24 to 48 hrs by MTT assay; format: functional, cell-based

SMILES | Ratio (MRC5 [1]) | Ratio (MRC5 [2]) | also measured
C=C[C@@H](c1ccc(OC)c(OC)c1)c1c(OC)cc(OC)c2c(=O)cc(-c3ccccc3)oc12 | 1.6 | 1.5 | 
C=C[C@@H](c1ccc(OC)c(OC)c1)c1c(OC)cc(O)c2c(=O)cc(-c3ccccc3)oc12 | 2 | 2.2 | 
C=C[C@@H](c1ccc(O)c(OC)c1)c1c(O)cc(OC)c2c(=O)cc(-c3ccccc3)oc12 | 1.6 | 1.8 | 
C=C[C@@H](c1ccccc1)c1c(O)cc(O)c2c(=O)cc(-c3ccccc3)oc12 | 1.5 | 2.4 | 
C=C[C@@H](c1ccc(O)c(OC)c1)c1c(OC)cc(O)c2c(=O)cc(-c3ccccc3)oc12 | 1.8 | 3.4 | Activity (HCT-116 [3]): tde; Activity (HCT-116 [4]): Active; Activity (HT-29 [5]): Active; Activity (MRC5 [6]): Active; Activity (HCT-116 [7]): Active; Activity (HCT-116 [8]): Active; Activity (HT-29 [9]): Active; Activity (HCT-116 [10]): 37.3%; Activity (HT-29 [11]): Active; Activity (MRC5 [12]): Active; Activity (HT-29 [13]): Active; Activity (HCT-116 [14]): Active; Activity (HT-29 [15]): Active; Activity (HCT-116 [16]): Dose-dependent effect; Activity (HT-29 [17]): 37.8%; Activity (HCT-116 [18]): inactive; Activity (HCT-116 [19]): inactive; Activity (MRC5 [20]): Active
C=C[C@@H](c1ccc(OC)c(OC)c1)c1c(O)cc(OC)c2c(=O)cc(-c3ccccc3)oc12 | 1.9 | 1.1 | 
C=C[C@@H](c1ccc(OC)cc1)c1c(O)cc(O)c2c(=O)cc(-c3ccccc3)oc12 | 1.8 | 1.1 | Activity (MRC5 [20]): inactive
C=C[C@@H](c1ccc(OC)c(OC)c1)c1c(O)cc(O)c2c(=O)cc(-c3ccccc3)oc12 | 1.3 | 1.6 | 
C=C[C@@H](c1ccc(OCc2ccccc2)c(OC)c1)c1c(OCc2ccccc2)cc(OCc2ccccc2)c2c(=O)cc(-c3ccccc3)oc12 | 2 | 0.6 | 
C=C[C@@H](c1ccc(O)c(OC)c1)c1c(O)cc(O)c2c(=O)cc(-c3ccccc3)oc12 | 2.3 | 1.7 | Activity (MRC5 [21]): Active
COc1cc(/C=C/COc2cc(OCc3ccccc3)c3c(=O)cc(-c4ccccc4)oc3c2)ccc1OCc1ccccc1 | 1 | 3 | Activity (HCT-116 [22]): inactive; Activity (HT-29 [23]): inactive; Activity (MRC5 [21]): inactive; Activity (HCT-116 [10]): 79.3%; Activity (HT-29 [17]): 99.2%; Activity (MRC5 [20]): inactive
C=C[C@@H](c1ccc(O)c(OC)c1)c1c(OC)cc(OC)c2c(=O)cc(-c3ccccc3)oc12 | 2.3 | 2.2 | 
C=C[C@@H](c1ccc(OCc2ccccc2)c(OC)c1)c1c(O)cc(OCc2ccccc2)c2c(=O)cc(-c3ccccc3)oc12 | 1.5 | 1.1 | 
C=C[C@@H](c1ccc(O)c(OC)c1)c1c(O)cc(O)c2c(=O)cc(-c3ccc(OC)cc3)oc12 | 1.4 | 2.3 | 
